Drawing on ChEMBL document CHEMBL5247639, “Fused-ring α-pyrones from intramolecular C-H activation and their lipids-lowering activity associated with LXR-IDOL-LDLR axis regulation” (2022), this text covers Activity and inhibition for eight molecules.

Assay [1] deals with HepG2. Briefly: Induction of LDL uptake in human HepG2 cells at 5 uM incubated for 24 hrs by microplate reader analysis. Type of assay: functional, cell-based.
A short description of assay [2]: Upregulation of LDLR protein level in human HepG2 cells at 5 uM incubated for 24 hrs by Western blot analysis relative to control. Type of assay: functional. (In general: In western blotting, separated proteins are transferred to a membrane and probed.)
Assay [3] in a line: Downregulation of IDOL protein level in human HepG2 cells at 5 uM incubated for 24 hrs by Western blot analysis relative to control. Type of assay: functional.
In assay [4] the test system is HepG2. The assay is described as follows: Downregulation of IDOL mRNA level in human HepG2 cells at 5 uM incubated for 24 hrs by Q-PCR analysis. Type of assay: functional, cell-based.
The test system of assay [5] is HepG2. Briefly: Downregulation of LXRalpha protein level in nucleus of human HepG2 at 5 uM incubated for 24 hrs by Western blot analysis. Type of assay: functional, cell-based.
The subject of assay [6] is HepG2. The assay is described as follows: Inhibition of LXR activity in human HepG2 cells assessed as downregulation of ABCA1 level at 5 uM incubated for 24 hrs by Q-PCR analysis. Type of assay: cell-based.
The test system of assay [7] is HepG2. Briefly: Inhibition of LXR activity in human HepG2 cells assessed as downregulation of SREBP-1c level at 5 uM incubated for 24 hrs by Q-PCR analysis. Type of assay: cell-based.
Assay [8] concerns Syrian golden hamster. The assay is described as follows: Hypolipidemic activity in high fat diet induced Syrian golden hamster assessed as decrease in low-density lipoprotein cholesterol level at 30 mg/kg,ip administered once daily for 21 days by automatic biochemical analyzer. Type of assay: functional, organism-based. To be noted: Mesocricetus auratus, time 21.0 day.
Assay [9] relates to Syrian golden hamster. Briefly: Hypolipidemic activity in high fat diet induced Syrian golden hamster assessed as decrease in total cholesterol level at 30 mg/kg,ip administered once daily for 21 days by automatic biochemical analyzer. Type of assay: functional, organism-based. To be noted: Mesocricetus auratus, time 21.0 day.
Assay [10] deals with Syrian golden hamster. The assay is described as follows: Hypolipidemic activity in high fat diet induced Syrian golden hamster assessed as decrease in triglyceride level at 30 mg/kg,ip administered once daily for 21 days by automatic biochemical analyzer. Type of assay: functional, organism-based. To be noted: Mesocricetus auratus, time 21.0 day.
For assay [11], the system named is HepG2. Briefly: Upregulation of LDLR protein level in human HepG2 cells at 5 uM incubated for 24 hrs by Western blot analysis. Type of assay: functional, cell-based.

The structures appear in SMILES notation. The source made the active and inactive calls. The rule behind the calls is not given here.

`O=c1oc(-c2cccs2)c2c3c1c1ccccc1n3CCC2`: in the assay with HepG2 [1], the result was Active.

For the molecule `O=c1cc2c(c(-c3cccs3)o1)CCCC2`, the result in the assay on HepG2 [1], in the assay on HepG2 [4] and in the assay on HepG2 [5] was Active. The figures for the Activity in assay [2] and in assay [3] were 238% and 42%, respectively. Besides, the inhibition entry in the assay with HepG2 [6] and in the assay on HepG2 [7] was “Active” throughout.

Turning to `O=c1cc2c(c(-c3cc4ccccc4s3)o1)CCCC2`, the result in the assay with HepG2 [1] was Active.

As for `O=c1cc2c(c(-c3ccc(-c4ccccc4)s3)o1)CCCC2`, in the assay on HepG2 [1], the result was Active.

As to `O=c1cc2c(c(-c3cc4ccccc4o3)o1)CCCC2`, in the assay with HepG2 [1], the outcome was Active.

Consider `O=c1oc(-c2ccccc2)c2c3c1c1ccccc1n3CCC2`, for which the result in the assay on HepG2 [1], in the assay on HepG2 [4], in the assay on HepG2 [5], in the assay with Syrian golden hamster [8], with Syrian golden hamster [9] and with Syrian golden hamster [10] was Active. For the same molecule, the Activity is 160% in assay [2] and 28% in assay [3]. Moreover, the inhibition result with HepG2 [6] and in the assay on HepG2 [7] was “Active” in each case.

Take `O=c1cc2c(c(-c3ccc(-c4cccs4)s3)o1)CCCC2`: the outcome with HepG2 [1] was Active.

As for `COc1ccccc1-c1oc(=O)cc2c1CCCC2`, the outcome with HepG2 [1] was Active. Also, the result with HepG2 [11] was inactive.
